Source: the NIST ThermoML archive (doi:10.1016/j.jct.2013.09.039)

Assay: xn = mol fraction of the nth substance listed
Details: Liquid, Vibrating tube method

Cc1ccc(C)cc1 [1,4-dimethylbenzene] + CCCCCCCCCC
mass density [kg/m3]
Details | 100 kPa | 5000 kPa | 10000 kPa | 20000 kPa | 30000 kPa | 40000 kPa
288.15 K, x2 = 0.0513 | 854 | 858 | 861.4 | 867.9 | 873.8 | 879.5
288.15 K, x2 = 0.0971 | 845.3 | 849.4 | 852.8 | 859.2 | 865 | 870.8
288.15 K, x2 = 0.1962 | 828.2 | 831.6 | 835 | 841.5 | 847.4 | 853.3
288.15 K, x2 = 0.2932 | 812.1 | 815.9 | 819.4 | 825.7 | 831.8 | 837.6
288.15 K, x2 = 0.3942 | 799.8 | 803.5 | 806.9 | 813.5 | 819.4 | 825.1
288.15 K, x2 = 0.4987 | 784.1 | 787.7 | 791.4 | 797.7 | 803.8 | 809.4
288.15 K, x2 = 0.5563 | 777.2 | 780.7 | 784.2 | 790.8 | 796.7 | 802.5
288.15 K, x2 = 0.5965 | 773.9 | 777 | 779.5 | 786 | 792 | 798.1
288.15 K, x2 = 0.7018 | 761 | 764.7 | 768.4 | 774.8 | 780.7 | 786.3
288.15 K, x2 = 0.8047 | 750.8 | 754.4 | 757.9 | 764.3 | 770.4 | 776
288.15 K, x2 = 0.8975 | 741 | 745.1 | 748.6 | 755.6 | 761.9 | 768.1
288.15 K, x2 = 0.9474 | 738 | 741.8 | 745.2 | 751.5 | 757.6 | 763.2
298.15 K, x2 = 0.0513 | 845.7 | 850.1 | 853.3 | 860 | 866.2 | 872.1
298.15 K, x2 = 0.0971 | 837.1 | 841.3 | 844.4 | 851.2 | 857.6 | 863.4
298.15 K, x2 = 0.1962 | 819.6 | 823.7 | 827 | 833.8 | 840.2 | 846
298.15 K, x2 = 0.2932 | 804 | 808.2 | 811.4 | 818.4 | 824.7 | 830.4
298.15 K, x2 = 0.3942 | 791.6 | 795.8 | 799.2 | 806 | 812.4 | 818.2
298.15 K, x2 = 0.4987 | 776 | 780.5 | 783.6 | 790.4 | 796.8 | 802.6
298.15 K, x2 = 0.5563 | 769 | 773.4 | 776.7 | 783.6 | 789.9 | 795.7
298.15 K, x2 = 0.5965 | 765 | 768.7 | 771.9 | 778.8 | 785.2 | 791.1
298.15 K, x2 = 0.7018 | 753.2 | 757.6 | 760.8 | 767.7 | 774 | 779.8
298.15 K, x2 = 0.8047 | 742.9 | 747.2 | 750.5 | 757.4 | 763.7 | 769.5
298.15 K, x2 = 0.8975 | 734.6 | 738.6 | 741.8 | 748.2 | 755.2 | 761.6
298.15 K, x2 = 0.9474 | 730.4 | 734.6 | 738 | 744.7 | 750.9 | 757.2
308.15 K, x2 = 0.0513 | 837.2 | 841.3 | 844.9 | 851.9 | 858.8 | 865.1
308.15 K, x2 = 0.0971 | 828.6 | 832.6 | 836.5 | 843.4 | 849.8 | 856
308.15 K, x2 = 0.1962 | 811.1 | 815.2 | 819.1 | 826 | 832.7 | 838.9
308.15 K, x2 = 0.2932 | 795.7 | 799.9 | 803.7 | 810.6 | 817.4 | 823.6
308.15 K, x2 = 0.3942 | 783.5 | 787.7 | 791.4 | 798.6 | 805.2 | 811.3
308.15 K, x2 = 0.4987 | 768.1 | 772.1 | 776.1 | 783.3 | 789.9 | 795.9
308.15 K, x2 = 0.5563 | 761 | 765.2 | 769.3 | 776.4 | 783 | 789.1
308.15 K, x2 = 0.5965 | 757 | 760.6 | 764.5 | 771.7 | 778.2 | 785
308.15 K, x2 = 0.7018 | 746.3 | 749.6 | 753.5 | 760.6 | 767 | 773.3
308.15 K, x2 = 0.8047 | 736.1 | 739.4 | 743.3 | 750.3 | 757 | 763.1
308.15 K, x2 = 0.8975 | 727.9 | 731.3 | 734.8 | 741.9 | 748.5 | 755.1
308.15 K, x2 = 0.9474 | 723.2 | 726.8 | 730.9 | 737.9 | 744.4 | 750.9

CCOC(=O)OCC [diethyl carbonate] + Cc1ccc(C)cc1
mass density [kg/m3]
Details | 100 kPa | 5000 kPa | 10000 kPa | 20000 kPa | 30000 kPa | 40000 kPa
288.15 K, x1 = 0.1014 | 876.7 | 880.1 | 883.7 | 890.3 | 896.1 | 902.1
288.15 K, x1 = 0.1346 | 879.5 | 884.1 | 887.8 | 894.3 | 900.3 | 906.3
288.15 K, x1 = 0.1949 | 887.5 | 891.2 | 894.8 | 901.3 | 907.5 | 913.4
288.15 K, x1 = 0.2767 | 898.3 | 900.9 | 904.5 | 911.3 | 917.4 | 923.5
288.15 K, x1 = 0.386 | 909.2 | 913.4 | 917.2 | 924.1 | 930.4 | 936.6
288.15 K, x1 = 0.4858 | 920.7 | 924.7 | 928.5 | 935.5 | 941.9 | 948.3
288.15 K, x1 = 0.5444 | 928.4 | 931.5 | 935.3 | 942.5 | 949.1 | 955.4
288.15 K, x1 = 0.5923 | 933.9 | 937 | 941 | 948 | 954.7 | 961.2
288.15 K, x1 = 0.6718 | 942.3 | 946.4 | 950.3 | 957.5 | 964.3 | 970.9
288.15 K, x1 = 0.7676 | 953.2 | 957.4 | 961.3 | 968.7 | 975.6 | 982.3
288.15 K, x1 = 0.8313 | 960.6 | 964.8 | 968.9 | 976.4 | 983.3 | 990.1
288.15 K, x1 = 0.9044 | 968.7 | 973.1 | 977.2 | 984.7 | 991.9 | 998.6
298.15 K, x1 = 0.1014 | 867.6 | 871.9 | 875.1 | 882 | 888.2 | 894.3
298.15 K, x1 = 0.1346 | 871.5 | 875.8 | 879 | 885.9 | 892.3 | 898.4
298.15 K, x1 = 0.1949 | 878.1 | 882.4 | 885.8 | 892.7 | 899.3 | 905.3
298.15 K, x1 = 0.2767 | 887.5 | 892 | 895.4 | 902.5 | 909.1 | 915.3
298.15 K, x1 = 0.386 | 899.8 | 904.4 | 907.7 | 915 | 921.9 | 928.2
298.15 K, x1 = 0.4858 | 910.7 | 915.2 | 918.8 | 926.3 | 933.2 | 939.6
298.15 K, x1 = 0.5444 | 916.8 | 922 | 925.6 | 933.2 | 940.2 | 946.6
298.15 K, x1 = 0.5923 | 922.8 | 927.4 | 931.1 | 938.5 | 945.8 | 952.3
298.15 K, x1 = 0.6718 | 931.7 | 936.5 | 940.3 | 947.8 | 955.1 | 961.8
298.15 K, x1 = 0.7676 | 942.4 | 947.3 | 951 | 959 | 966.3 | 973.1
298.15 K, x1 = 0.8313 | 949.8 | 954.7 | 958.4 | 966.4 | 973.8 | 980.8
298.15 K, x1 = 0.9044 | 957.6 | 962.7 | 966.6 | 974.7 | 982.2 | 989.1
308.15 K, x1 = 0.1014 | 858.7 | 862.8 | 866.6 | 873.8 | 880.4 | 886.6
308.15 K, x1 = 0.1346 | 862.5 | 866.7 | 870.4 | 877.7 | 884.5 | 890.8
308.15 K, x1 = 0.1949 | 868.9 | 873 | 876.5 | 884.2 | 891.1 | 897.5
308.15 K, x1 = 0.2767 | 878.2 | 882.4 | 886.5 | 893.8 | 900.8 | 907.3
308.15 K, x1 = 0.386 | 890.1 | 894.5 | 898.5 | 906.2 | 913.3 | 919.9
308.15 K, x1 = 0.4858 | 900.7 | 905.2 | 909.2 | 917.2 | 924.5 | 931.2
308.15 K, x1 = 0.5444 | 907.2 | 911.7 | 916 | 923.9 | 931.3 | 938.1
308.15 K, x1 = 0.5923 | 912.6 | 916.9 | 921.4 | 929.4 | 936.8 | 943.7
308.15 K, x1 = 0.6718 | 921.3 | 925.7 | 930.3 | 938.4 | 945.9 | 952.9
308.15 K, x1 = 0.7676 | 931.8 | 936.5 | 940.9 | 949.2 | 957 | 964.1
308.15 K, x1 = 0.8313 | 939 | 943.6 | 948.1 | 956.6 | 964.2 | 971.6
308.15 K, x1 = 0.9044 | 946.7 | 951.5 | 956.2 | 964.5 | 972.6 | 979.9
